# According to US9045401B2, “Methods for treating or ameliorating a melanoma and killing melanoma cells” (THE REGENTS OF THE UNIVERSITY OF CALIFORNIA, priority 2007, dated 2015):
# “Also recorded” adds a separate entry of the source.
# Assays:
# chemical stability = type: physicochemical
# [1] = tested on: NB7-C8 neuroblastoma tumor cells; experiment: neuroblastoma tumor growth on chick chorioallantoic membrane; type: in vivo; conditions: 100 picomoles ScA topically after 72 hours, harvested day 8; p<0.002; listed as ScA
# Method: FIG. 31(A-F): Transgenic Tg(fli1:EGFP) zebrafish embryos in which GFP is expressed in endothelial cells were incubated without (A) or with increasing concentrations of ScA: 80 nM in FIG. 31(B), 160 nM in FIG. 31(C), 300 nM in FIG. 31(D) 1.6 μM in FIG. 31(E) or 3 μM in FIG. 31(F), and blood vessel morphology recorded by fluorescence microscopy. FIG. 31(G) Filter disks impregnated with 100 ng of bFGF were placed on the chorioallantoic membrane of eleven day old chicks to induce angiogenesis in the absence or presence of ScA, as shown. After 72 hours (h), disks were removed and the vascularity of the underlying chorioallantoic membrane determined by direct counting of branch points using a dissecting microscope. FIG. 31(H): NB7 neuroblastoma cells lacking caspase 8 (filled bar) or NB7-C8 cells reconstituted for caspase 8 expression (open bars) were seeded into ten day old chick chorioallantoic membranes to form tumors. After 72 hours, ScA was added topically to each growing tumor mass. Tumors were harvested and resected on day 8, and mass (wet weight) determined. Data shown is the mean±SD (N=8-12).
# Tumors were then treated topically with 100 picomoles of ScA, and allowed to grow a further five days before being harvested.
# Chick Chorioallantoic membrane studies. The CAM studies were performed using 10 day old chick embryos as we've previously described (36). […]
# [2] = partition from liquid phase into 100 nanometer liposomes (nanosomes); type: physicochemical
# Method: Preparation of Liposomes. Cholesterol:Dope:Dspc:Sca:Dspe-Mpeg (in 1:1:1:0.16:0.16 molar ratio) in chloroform were taken in 30 mL glass culture tubes, dried under a stream of nitrogen gas and vacuum-dessicated for a minimum of 6 h to remove any residual organic solvent. The dried lipid film was hydrated in sterile deionized water in a total volume of 1 mL for a minimum of 12 h. Liposomes were vortexed for 2-3 minutes to remove any adhering lipid film and sonicated in a bath sonicator (ULTRASONIK 28X™) for 2-3 minutes at room temperature to produce multilamellar vesicles (MLV). MLVs were then sonicated with a Ti-probe (using a BRANSON450™ sonifier at 100% duty cycle and 25 W output power) in an ice bath for 1-2 minutes to produce small unilamellar vesicles (SUVs) as indicated by the formation of a clear translucent solution. The solution was pressure filtered in sequence though 200 and then 100 nm nucelopore polycarbonate membranes to obtain liposome nanoparticles of 100 nm with a polydispersity factor of less than 0.1.
# [3] = tested on: Transgenic Tg(fli1:EGFP) zebrafish embryos; experiment: blood vessel formation in zebrafish; type: in vivo; conditions: for blood vessel growth and angiogenesis: 80 nM to 3 μM in the water, dose-dependent; for viability / acute toxicity to the fish: 24 hour period of the study
# Method: Zebrafish Experiments. Blood vessel formation in Zebrafish: Transgenic Tg(fli1:EGFP) zebrafish embryos were purchased from www.zfin.org as reported elsewhere (34). Adult fish and embryos were maintained according to “Zebrafish—A Practical Approach” (35). ScA compound in DMSO stock solution was diluted directly into the water and zebrafish intersegmental vessels were imaged using Nikon c1-si confocal microscope after the times specified. Raw image datasets were processed using IMARIS 3D™ image analysis software. All animal procedures were conducted in accordance with all appropriate regulatory standards under protocol #S06008 approved by the University of California San Diego (UCSD) Institutional Animal Care and Use Committee.
# A549 cells = experiment: confocal microscopy of ceramide and caspase 8; type: cell-based, human
# Method: Confocal microscopy. […] After treatment, the cells were fixed 10 minutes at room temperature with 4% PFA, washed twice with PBS, permeabilized 2 minutes at room temperature with 0.1% triton in PBS and blocked for 30 minutes with sterile 2% BSA in PBS. The staining was performed at room temperature for 2 hours (h), with mouse monoclonal anti-human ceramide (Alexis) and rabbit anti-human caspase 8 (BD Pharmingen) antibodies followed by secondary goat anti-mouse ALEXA FLUOR568™ and goat anti-rabbit ALEXA FLUOR488™ antibodies (Invitrogen). The blue DNA binding dye TOPRO-3™ (Molecular Probes) was added together with the secondary antibodies. The cells were washed three times with PBS between the different incubation steps and the incubation with the secondary fluorescently labeled antibodies was performed in the dark. All antibodies were diluted in PBS. Confocal images were recorded on a Nikon ECLIPSE C1™ confocal microscope.
# TJK304 cells = experiment: XTT cell proliferation assay; type: cell-based; conditions: anti-proliferative effect, FIG. 6
# Method: (§1) Cytotoxicity Assay. Cytotoxicity of ScA was assessed using the XTT cell proliferation assay. Briefly cells were plated on 96 well plates (5,000 per well) and incubated over night at 37° C. to allow for attachment and spreading. After 24 h, ScA was added from a DMSO stock, previously frozen at −80C as added directly from serial dilutions in DMSO at concentrations ranging from 100 uM to 100 fM. After 72 h, XTT (Aldrich Chemicals) was added to a final concentration of 250 ug/well. The plates were then incubated under standard tissue culture conditions until the control wells (DMSO) reached an OD value between 1.0-1.5. as measured at 450 nm using a microtiter plate reader. The cell viability-drug dilution profiles were obtained from sigma plots, and drug concentrations which inhibited growth by 50% were calculated from multiple runs. (IC50)
# M21 melanoma cells = experiment: XTT cell proliferation assay; type: cell-based; conditions: Homo sapiens, anti-proliferative effect, FIG. 6
# Method: as §1
# [4] = tested on: PC3 prostate cancer cells; experiment: XTT cell proliferation assay; type: cell-based; conditions: Homo sapiens; anti-proliferative effect, FIG. 6
# Method: as §1
# [5] = tested on: pancreatic metastatic mouse carcinoma cells; experiment: XTT cell proliferation assay; type: cell-based; conditions: anti-proliferative effect, FIG. 6
# Method: as §1
# [6] = tested on: Molt-4 T cell leukemia cells; experiment: XTT cell proliferation assay; type: cell-based; conditions: Homo sapiens, anti-proliferative effect, FIG. 6
# Method: as §1
structure (smiles),measurement,setting,value
"C=CC/C=C/N(C)C(=O)CCCCCCCC/C=C/[C@H](CSSC[C@@H](/C=C/CCCCCCCCC(=O)N(C)/C=C/CC=C)NC(C)=O)NC(C)=O [somocystinamide A, Somocystinamide A]",storage stability,chemical stability; apart from hydrolytic degradation of the unsaturated amide,otherwise quite stable
same,acid sensitivity,chemical stability; converts to compound 2,highly acid-sensitive
same,tumor growth / tumor mass (wet weight),[1],significantly decreased; also recorded: inhibition of tumor growth selectively in the caspase 8-expressing tumor cells
same,interchelation of ScA within the nanosomes,[2],essentially complete within thirty minutes
same,blood vessel growth and angiogenesis,[3],potently inhibited angiogenesis
same,blood vessel growth and angiogenesis,[3]; listed as ScA,blocked blood vessel growth and angiogenesis
same,viability / acute toxicity to the fish,[3],without acute toxicity
same,viability / acute toxicity to the fish,[3]; listed as ScA,all of the fish remained viable
same,colocalization of ceramide and caspase 8,"A549 cells; 0.10 μM, 30 minutes or six hours",induced colocalization of ceramide and caspase 8
same,cell surface ceramide,"A549 cells; 300 nM, 30 minutes after treatment","accumulation, and aggregation, of cell surface ceramide"
same,IC50,TJK304 cells,830 nM
same,IC50,M21 melanoma cells,1280 nM
same,IC50,[4],970 nM
same,IC50,[5],8 nM
same,IC50,[6],600 nM
